Test results as given in patent US20260130395A1, “Water Dispersible Botanical Compositions” (Aquila Black Limited, priority 2021, published 2026).

Assay: Stability of cannabinoid compounds and Vitamin E components in Beverage 1 (AB White) by LCMSMS
Assay type: physicochemical
Settings: for Stability of Plant-Derived Cannabinoid Compounds in AB White, 8° C.: AB White stored at 8° C.; for Stability of Plant-Derived Cannabinoid Compounds in AB White, 21-25° C.: AB White stored at 21-25° C.
Procedure: The stability of the plant-derived cannabinoid compounds and Vitamin E components of the beverage stored 8° C. and at room temperature (21-25° C.) were monitored, over a period of 570 days via Liquid Chromatography-tandem Mass Spectrometry [LCMSMS, Agilent 6590, C18, 3×50 mm, 2.7 m (Agilent InfinityLab Poroshell 120 EC-C18), Electrospray Ionization detector]. The LCMSMS was calibrated for 0-1000 ng/ml cannabinoids with the same resin material used in the preparation of the concentrates. At each time period, 100 ml of beverage was diluted with 10 ml of methanol and injected into the LCMSMS for analysis.

## C=C(C)[C@@H]1CCC(C)=C[C@H]1c1c(O)cc(CCCCC)c(C(=O)O)c1O [CBDA, cannabidiolic acid]
0 days
  Stability of Plant-Derived Cannabinoid Compounds in AB White, 8° C.: 1.75 µg/mL
  Stability of Plant-Derived Cannabinoid Compounds in AB White, 21-25° C.: 1.75 µg/mL
1 days
  Stability of Plant-Derived Cannabinoid Compounds in AB White, 8° C.: 1.72 µg/mL
  Stability of Plant-Derived Cannabinoid Compounds in AB White, 21-25° C.: 1.76 µg/mL
2 days
  Stability of Plant-Derived Cannabinoid Compounds in AB White, 8° C.: 1.76 µg/mL
  Stability of Plant-Derived Cannabinoid Compounds in AB White, 21-25° C.: 1.70 µg/mL
3 days
  Stability of Plant-Derived Cannabinoid Compounds in AB White, 8° C.: 1.76 µg/mL
  Stability of Plant-Derived Cannabinoid Compounds in AB White, 21-25° C.: 1.71 µg/mL
5 days
  Stability of Plant-Derived Cannabinoid Compounds in AB White, 8° C.: 1.71 µg/mL
  Stability of Plant-Derived Cannabinoid Compounds in AB White, 21-25° C.: 1.69 µg/mL
8 days
  Stability of Plant-Derived Cannabinoid Compounds in AB White, 8° C.: 1.75 µg/mL
  Stability of Plant-Derived Cannabinoid Compounds in AB White, 21-25° C.: 1.77 µg/mL
9 days
  Stability of Plant-Derived Cannabinoid Compounds in AB White, 8° C.: 1.73 µg/mL
  Stability of Plant-Derived Cannabinoid Compounds in AB White, 21-25° C.: 1.74 µg/mL
10 days
  Stability of Plant-Derived Cannabinoid Compounds in AB White, 8° C.: 1.76 µg/mL
  Stability of Plant-Derived Cannabinoid Compounds in AB White, 21-25° C.: 1.73 µg/mL
11 days
  Stability of Plant-Derived Cannabinoid Compounds in AB White, 8° C.: 1.70 µg/mL
  Stability of Plant-Derived Cannabinoid Compounds in AB White, 21-25° C.: 1.76 µg/mL
12 days
  Stability of Plant-Derived Cannabinoid Compounds in AB White, 8° C.: 1.71 µg/mL
  Stability of Plant-Derived Cannabinoid Compounds in AB White, 21-25° C.: 1.74 µg/mL
15 days
  Stability of Plant-Derived Cannabinoid Compounds in AB White, 8° C.: 1.74 µg/mL
  Stability of Plant-Derived Cannabinoid Compounds in AB White, 21-25° C.: 1.69 µg/mL
16 days
  Stability of Plant-Derived Cannabinoid Compounds in AB White, 8° C.: 1.73 µg/mL
  Stability of Plant-Derived Cannabinoid Compounds in AB White, 21-25° C.: 1.75 µg/mL
17 days
  Stability of Plant-Derived Cannabinoid Compounds in AB White, 8° C.: 1.73 µg/mL
  Stability of Plant-Derived Cannabinoid Compounds in AB White, 21-25° C.: 1.72 µg/mL
18 days
  Stability of Plant-Derived Cannabinoid Compounds in AB White, 8° C.: 1.76 µg/mL
  Stability of Plant-Derived Cannabinoid Compounds in AB White, 21-25° C.: 1.75 µg/mL
19 days
  Stability of Plant-Derived Cannabinoid Compounds in AB White, 8° C.: 1.74 µg/mL
  Stability of Plant-Derived Cannabinoid Compounds in AB White, 21-25° C.: 1.70 µg/mL
22 days
  Stability of Plant-Derived Cannabinoid Compounds in AB White, 8° C.: 1.70 µg/mL
  Stability of Plant-Derived Cannabinoid Compounds in AB White, 21-25° C.: 1.70 µg/mL
23 days
  Stability of Plant-Derived Cannabinoid Compounds in AB White, 8° C.: 1.76 µg/mL
  Stability of Plant-Derived Cannabinoid Compounds in AB White, 21-25° C.: 1.73 µg/mL
24 days
  Stability of Plant-Derived Cannabinoid Compounds in AB White, 8° C.: 1.72 µg/mL
  Stability of Plant-Derived Cannabinoid Compounds in AB White, 21-25° C.: 1.70 µg/mL
25 days
  Stability of Plant-Derived Cannabinoid Compounds in AB White, 8° C.: 1.75 µg/mL
  Stability of Plant-Derived Cannabinoid Compounds in AB White, 21-25° C.: 1.73 µg/mL
26 days
  Stability of Plant-Derived Cannabinoid Compounds in AB White, 8° C.: 1.75 µg/mL
  Stability of Plant-Derived Cannabinoid Compounds in AB White, 21-25° C.: 1.75 µg/mL
29 days
  Stability of Plant-Derived Cannabinoid Compounds in AB White, 8° C.: 1.75 µg/mL
30 days
  Stability of Plant-Derived Cannabinoid Compounds in AB White, 8° C.: 1.76 µg/mL
60 days
  Stability of Plant-Derived Cannabinoid Compounds in AB White, 8° C.: 1.70 µg/mL
90 days
  Stability of Plant-Derived Cannabinoid Compounds in AB White, 8° C.: 1.70 µg/mL
120 days
  Stability of Plant-Derived Cannabinoid Compounds in AB White, 8° C.: 1.67 µg/mL
150 days
  Stability of Plant-Derived Cannabinoid Compounds in AB White, 8° C.: 1.71 µg/mL
180 days
  Stability of Plant-Derived Cannabinoid Compounds in AB White, 8° C.: 1.75 µg/mL
210 days
  Stability of Plant-Derived Cannabinoid Compounds in AB White, 8° C.: 1.68 µg/mL
240 days
  Stability of Plant-Derived Cannabinoid Compounds in AB White, 8° C.: 1.70 µg/mL
270 days
  Stability of Plant-Derived Cannabinoid Compounds in AB White, 8° C.: 1.70 µg/mL
300 days
  Stability of Plant-Derived Cannabinoid Compounds in AB White, 8° C.: 1.69 µg/mL
330 days
  Stability of Plant-Derived Cannabinoid Compounds in AB White, 8° C.: 1.70 µg/mL
360 days
  Stability of Plant-Derived Cannabinoid Compounds in AB White, 8° C.: 1.70 µg/mL
390 days
  Stability of Plant-Derived Cannabinoid Compounds in AB White, 8° C.: 1.70 µg/mL
420 days
  Stability of Plant-Derived Cannabinoid Compounds in AB White, 8° C.: 1.67 µg/mL
450 days
  Stability of Plant-Derived Cannabinoid Compounds in AB White, 8° C.: 1.68 µg/mL
480 days
  Stability of Plant-Derived Cannabinoid Compounds in AB White, 8° C.: 1.66 µg/mL
510 days
  Stability of Plant-Derived Cannabinoid Compounds in AB White, 8° C.: 1.61 µg/mL
540 days
  Stability of Plant-Derived Cannabinoid Compounds in AB White, 8° C.: 1.61 µg/mL
570 days
  Stability of Plant-Derived Cannabinoid Compounds in AB White, 8° C.: 1.60 µg/mL
